{"source": "patent US20100028366A1", "about": "“SYNERGISTIC EFFECT BETWEEN A […] AND ANOTHER OXIDATIVE INDUCING SYSTEM FOR TREATING TUMORS” (priority 2005, published 2010)", "key": {"W&Wlis cells": {"system": "W&Wlis cells", "assay": "Analysis of the type of death by flow cytometry (annexin V-FITC/propidium iodide)", "format": "cell-based, canine", "set-up": "Necrosis / Apoptosis: unit not given here", "details": "Without GO", "protocol": "The annexin V-FITC and propidium iodide assay was performed in parallel by flow cytometry. The pattern of death of the system was analyzed when adding 5 mEU/ml of glucose oxidase and the combined therapy (5 mEU/ml of GO and 500 μg/ml of linamarin) at 48 hours, followed by the control of untreated cells and of the cells incubated with 500 μg/ml of linamarin at 96 hours. Furthermore, another group of cells was subjected to the same conditions except 10 mM of N-acetyl cysteine (NAC) were added. The cells treated with the combined therapy were subsequently studied at 48 hours in the absence and presence of 100 μM of Z-VAD-fmk, followed by the control of treatment of the cells with UV in the same conditions. Finally, the cells treated with the combined therapy were shown at 48 hours in the absence and presence of 300 μM of 1,5-isoquinolinediol (DIQ), observing that the pattern of death is not modified when PARP-1 is inhibited (FIG. 4).\n10^5 W&Wlis cells were seeded in test tubes with a screw-on cap and flat side (Nunc). After 24 hours, different amounts of linamarin (50, 200 or 500 μg/ml) and glucose oxidase (5 mEU/ml) were added in the specified cases. In the appropriate assays, the medium was supplemented with N-acetyl cysteine (10 mM), 1,5-isoquinolinediol (300 μM) or Z-VAD-fmk (100 μM). […] They were centrifuged for 5 minutes at 1200 rpm and the cell precipitate was washed first with PBS and then with binding buffer (0.1 M Hepes/NaOH pH 7.4, 1.4 M NaCl and 25 mM CaCl2). The cells were again precipitated and resuspended in 100 μl of binding buffer supplemented with 5 μl of annexin V-FITC and 2.5 μg/ml of propidium iodide. The samples were incubated for 15 minutes in the dark. Data acquisition and analysis was carried out by means of a FACSCalibur flow cytometer (DB Biosciences) with the Cell Quest program."}, "W&Wlis tumors": {"system": "W&Wlis tumors", "assay": "Xenotransplant model, W&Wlis tumors in immunodeficient mice", "format": "in vivo", "details": "intratumoral", "protocol": "In addition, a dose range for linamarin was evaluated in immunodeficient (nude) mice weighing 20 grams, inoculated with W&W tumor cells which stably expressed linamarase (W&Wlis). When the tumor reached an approximate size of 50 mm^3, the mice were treated with a daily dose of intratumoral linamarin at different concentrations (0.5; 0.35; 0.25 or 0.10 mg lin/g of weight of the animal).\nAnother approach carried out for the invention was the use of adenoviruses carrying the linamarase gene (adenolis) in W&W cell tumors induced in immunodeficient mice. 10^6 cells were subcutaneously inoculated in both flanks in mice (n=18). Part of the animals (n=8) received W&Wlis cells which already expressed linamarase, while others (n=10) were inoculated with W&W cells and only when the tumor had developed was it locally infected with adenolis. The animals inoculated with W&Wlis were treated daily with 0.25 mg lin and 0.1 EU GO/g in the largest tumor at the beginning of treatment (approximately 50 mm^3) (FIGS. 7G and 7H). The animals showing W&W tumors were treated with infection cycles with 10^9 IU of adenolis, followed by a two-day treatment with 0.25 mg lin and 0.1 EU GO/g (FIGS. 7I and 7J). The progression of the tumors was evaluated every two days.\nImmunodeficient (nude strain), athymic mice weighing approximately 20 grams and 2 months old were used. They were inoculated with 1-2×10^6 cells (W&W or W&Wlis) subcutaneously in both flanks of the mice by means of an injection with a volume of 50 μl in complete PBS (supplemented with calcium and magnesium ions) with 0.1% glucose. The size of the tumors (pi π/6×height×width×length) was measured with a calibrator.\nA large group of mice (n=8) were inoculated with 1-2×10^6 W&Wlis cells as previously described. When the tumors reached a mean size of 30-50 mm^3, the tumors of one flank were treated daily with 0.25 mg of linamarin and 0.1 EU of glucose oxidase/g of weight of the animal. When the untreated tumors reached a size of about 2000 mm^3 the animals were sacrificed and it was considered the end of treatment. The data was analyzed statistically by Student's t test, considering a level of significance of 5%."}, "[1]": {"details": "50 μg lin, 96 hours, NAC (10 mM)"}, "[2]": {"details": "200 μg lin, 96 hours, NAC (10 mM)"}, "[3]": {"details": "500 μg lin, 96 hours, NAC (10 mM)"}, "[4]": {"details": "Table 4, 50 μg lin, 72 hours, Z-VAD-fmk (100 μM)"}, "[5]": {"details": "Table 4, 50 μg lin, 72 hours, control (no Z-VAD-fmk)"}, "[6]": {"details": "Table 4, 200 μg lin, 72 hours, Z-VAD-fmk (100 μM)"}, "[7]": {"details": "Table 4, 200 μg lin, 72 hours, control (no Z-VAD-fmk)"}, "[8]": {"details": "Table 4, 500 μg lin, 72 hours, Z-VAD-fmk (100 μM)"}, "[9]": {"details": "Table 4, 500 μg lin, 72 hours, control (no Z-VAD-fmk)"}}}
{"smiles": "CC(C)(C#N)O[C@@H]1O[C@H](CO)[C@@H](O)[C@H](O)[C@H]1O", "note": "[lin, 2-hydroxy-isobutyronitrile-β-D-glucopyranoside]", "values": [{"measurement": "Apoptosis", "setting": "W&Wlis cells; 50 μg lin, 48 h", "result": 3.71}, {"measurement": "Necrosis", "setting": "W&Wlis cells; 50 μg lin, 48 h", "result": 2.96}, {"measurement": "Apoptosis", "setting": "W&Wlis cells; 50 μg lin, 72 h", "result": 3.74}, {"measurement": "Necrosis", "setting": "W&Wlis cells; 50 μg lin, 72 h", "result": 5.28}, {"measurement": "Apoptosis", "setting": "W&Wlis cells; 50 μg lin, 96 h", "result": 20.83}, {"measurement": "Necrosis", "setting": "W&Wlis cells; 50 μg lin, 96 h", "result": 11.33}, {"measurement": "Apoptosis", "setting": "W&Wlis cells; [1]", "result": 6.44}, {"measurement": "Necrosis", "setting": "W&Wlis cells; [1]", "result": 51.89}, {"measurement": "Apoptosis", "setting": "W&Wlis cells; 200 μg lin, 48 h", "result": 3.84}, {"measurement": "Necrosis", "setting": "W&Wlis cells; 200 μg lin, 48 h", "result": 5.68}, {"measurement": "Apoptosis", "setting": "W&Wlis cells; 200 μg lin, 72 h", "result": 4.62}, {"measurement": "Necrosis", "setting": "W&Wlis cells; 200 μg lin, 72 h", "result": 9.34}, {"measurement": "Apoptosis", "setting": "W&Wlis cells; 200 μg lin, 96 h", "result": 14.31}, {"measurement": "Necrosis", "setting": "W&Wlis cells; 200 μg lin, 96 h", "result": 45.15}, {"measurement": "Apoptosis", "setting": "W&Wlis cells; [2]", "result": 21.58}, {"measurement": "Necrosis", "setting": "W&Wlis cells; [2]", "result": 29.18}, {"measurement": "Apoptosis", "setting": "W&Wlis cells; 500 μg lin, 48 h", "result": 5.17}, {"measurement": "Necrosis", "setting": "W&Wlis cells; 500 μg lin, 48 h", "result": 5.54}, {"measurement": "Apoptosis", "setting": "W&Wlis cells; 500 μg lin, 72 h", "result": 6.25}, {"measurement": "Necrosis", "setting": "W&Wlis cells; 500 μg lin, 72 h", "result": 6.91}, {"measurement": "Apoptosis", "setting": "W&Wlis cells; 500 μg lin, 96 h", "result": 18.99}, {"measurement": "Necrosis", "setting": "W&Wlis cells; 500 μg lin, 96 h", "result": 24.98}, {"measurement": "Apoptosis", "setting": "W&Wlis cells; [3]", "result": 18.53}, {"measurement": "Necrosis", "setting": "W&Wlis cells; [3]", "result": 19.89}, {"measurement": "Apoptosis", "setting": "W&Wlis cells; [4]", "result": 3.48}, {"measurement": "Necrosis", "setting": "W&Wlis cells; [4]", "result": 15.01}, {"measurement": "Apoptosis", "setting": "W&Wlis cells; [5]", "result": 1.36}, {"measurement": "Necrosis", "setting": "W&Wlis cells; [5]", "result": 14.72}, {"measurement": "Apoptosis", "setting": "W&Wlis cells; [6]", "result": 2.56}, {"measurement": "Necrosis", "setting": "W&Wlis cells; [6]", "result": 13.07}, {"measurement": "Apoptosis", "setting": "W&Wlis cells; [7]", "result": 3.30}, {"measurement": "Necrosis", "setting": "W&Wlis cells; [7]", "result": 30.13}, {"measurement": "Apoptosis", "setting": "W&Wlis cells; [8]", "result": 6.08}, {"measurement": "Necrosis", "setting": "W&Wlis cells; [8]", "result": 13.24}, {"measurement": "Apoptosis", "setting": "W&Wlis cells; [9]", "result": 9.02}, {"measurement": "Necrosis", "setting": "W&Wlis cells; [9]", "result": 18.04}, {"measurement": "therapeutic effect on tumor growth", "setting": "W&Wlis tumors; 0.1 mg lin/g daily, n=4", "result": "no therapeutic effect"}, {"measurement": "therapeutic effect on tumor growth", "setting": "W&Wlis tumors; 0.25 mg lin/g daily, after the tenth day of treatment, p=0.05, n=6", "result": "significant reduction of the growth of the treated tumor"}, {"measurement": "death of animals", "setting": "W&Wlis tumors; 0.35 mg lin/g daily, fifth day of treatment", "result": "death of three of the four animals"}, {"measurement": "death of animals", "setting": "W&Wlis tumors; 0.5 mg lin/g daily, between the fourth and fifth day of treatment", "result": "all the animals"}]}
